According to PubChem BioAssay AID248 (DTP/NCI, 2004):
Several values for one entry are separate records, joined by “and”; a condition that tells them apart may be missing. Equal entries are not always repeated. Toxic doses and inconclusive results are not listed.

System: L1210 leukemia ip in BDF1 mice, survival T/C
Assay: NCI In Vivo Anticancer Drug Screen. Data for tumor model L1210 Leukemia (intraperitoneal) in B6D2F1 (BDF1) mice
Settings: endpoint: mean survival time, higher = longer survival
How it was run: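 In this screen, tumor-bearing mice given compound are compared to those given vehicle, and their survival values are reported as a treated-to-control quotient.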

With `CC(=O)OCC1OC(n2ccc(N)nc2=O)C(OC(C)=O)C1OC(C)=O` (stereo not drawn) the T/C (dose: 6.3 mg/kg/injection, schedule: Q01DX015 (oral), vehicle: carboxymethylcellulose (CMC)) was 117 % of control, the T/C (dose: 6.6 mg/kg/injection, schedule: Q03HX024 (ip), vehicle: carboxymethylcellulose (CMC)) was 156 % of control and the T/C (dose: 10.0 mg/kg/injection, schedule: Q01DX015 (ip), vehicle: saline) was 101 % of control. The T/C (dose: 11.0 mg/kg/injection, schedule: Q03HX008 (ip), vehicle: carboxymethylcellulose (CMC)) was 121 % of control, the T/C (dose: 11.0 mg/kg/injection, schedule: Q03HX024 (ip), vehicle: carboxymethylcellulose (CMC)) was 184 % of control and the T/C (dose: 12.5 mg/kg/injection, schedule: Q01DX015 (oral), vehicle: carboxymethylcellulose (CMC)) was 116 % of control. The T/C (dose: 15.0 mg/kg/injection, schedule: Q01DX015 (ip), vehicle: saline) was 117 % of control, the T/C (dose: 18.0 mg/kg/injection, schedule: Q03HX024 (ip), vehicle: carboxymethylcellulose (CMC)) was 207 % of control and the T/C (dose: 23.0 mg/kg/injection, schedule: Q01DX015 (ip), vehicle: saline) was 124 % of control. The T/C (dose: 25.0 mg/kg/injection, schedule: Q01DX015 (oral), vehicle: carboxymethylcellulose (CMC)) was 122 % of control, the T/C (dose: 30.0 mg/kg/injection, schedule: Q03HX024 (ip), vehicle: carboxymethylcellulose (CMC)) was 246 % of control and the T/C (dose: 35.0 mg/kg/injection, schedule: Q01DX015 (ip), vehicle: saline) was 150 % of control and 168 % of control. For the same compound, the T/C (dose: 37.0 mg/kg/injection, schedule: Q01DX009 (oral), vehicle: water) was 123 % of control, the T/C (dose: 37.0 mg/kg/injection, schedule: Q## X024 (oral), vehicle: water) was 100 % of control and the T/C (dose: 50.0 mg/kg/injection, schedule: Q01DX009 (ip), vehicle: saline) was 153 % of control. The T/C (dose: 50.0 mg/kg/injection, schedule: Q01DX009 (ip), vehicle: water) was 171 % of control, the T/C (dose: 50.0 mg/kg/injection, schedule: Q01DX009 (sc), vehicle: water) was 158 % of control and the T/C (dose: 51.0 mg/kg/injection, schedule: Q01DX009 (ip), vehicle: carboxymethylcellulose (CMC)) was 180 % of control. For the same compound, the T/C (dose: 51.0 mg/kg/injection, schedule: Q03HX008 (ip), vehicle: carboxymethylcellulose (CMC)) was 157 % of control, the T/C (dose: 55.0 mg/kg/injection, schedule: Q01DX015 (ip), vehicle: saline) was 201 % of control and the T/C (dose: 75.0 mg/kg/injection, schedule: Q01DX005 (oral), vehicle: water) was 121 % of control. The T/C (dose: 75.0 mg/kg/injection, schedule: Q01DX009 (oral), vehicle: water) was 117 % of control, the T/C (dose: 86.0 mg/kg/injection, schedule: Q01DX009 (ip), vehicle: carboxymethylcellulose (CMC)) was 213 % of control and the T/C (dose: 100.0 mg/kg/injection, schedule: Q01DX005 (ip), vehicle: saline) was 154 % of control and 164 % of control. The T/C (dose: 100.0 mg/kg/injection, schedule: Q01DX009 (ip), vehicle: saline) was 222 % of control, the T/C (dose: 100.0 mg/kg/injection, schedule: Q01DX009 (ip), vehicle: water) was 235 % of control and the T/C (dose: 100.0 mg/kg/injection, schedule: Q01DX009 (sc), vehicle: water) was 205 % of control. The T/C (dose: 100.0 mg/kg/injection, schedule: Q01DX011 (oral), vehicle: water) was 156 % of control and 175 % of control, the T/C (dose: 125.0 mg/kg/injection, schedule: Q01DX015 (ip), vehicle: saline) was 314 % of control and the T/C (dose: 150.0 mg/kg/injection, schedule: Q01DX001 (ip), vehicle: water) was 114 % of control. The T/C (dose: 150.0 mg/kg/injection, schedule: Q01DX001 (sc), vehicle: water) was 150 % of control, the T/C (dose: 150.0 mg/kg/injection, schedule: Q01DX005 (oral), vehicle: water) was 112 % of control and the T/C (dose: 150.0 mg/kg/injection, schedule: Q## X003 (oral), vehicle: water) was 120 % of control. The T/C (dose: 150.0 mg/kg/injection, schedule: Q## X024 (oral), vehicle: water) was 104 % of control and 113 % of control, the T/C (dose: 200.0 mg/kg/injection, schedule: Q01DX005 (ip), vehicle: saline) was 190 % of control and 198 % of control and the T/C (dose: 200.0 mg/kg/injection, schedule: Q01DX009 (ip), vehicle: saline) was 109 % of control. The T/C (dose: 200.0 mg/kg/injection, schedule: Q01DX009 (ip), vehicle: water) was 88 % of control, the T/C (dose: 200.0 mg/kg/injection, schedule: Q01DX009 (sc), vehicle: water) was 95 % of control and the T/C (dose: 200.0 mg/kg/injection, schedule: Q01DX011 (oral), vehicle: water) was 201 % of control. For the same compound, the T/C (dose: 250.0 mg/kg/injection, schedule: Q01DX001 (ip), vehicle: saline) was 116 % of control, the T/C (dose: 250.0 mg/kg/injection, schedule: Q01DX015 (ip), vehicle: saline) was 86 % of control and the T/C (dose: 300.0 mg/kg/injection, schedule: Q01DX001 (ip), vehicle: water) was 118 % of control. The T/C (dose: 300.0 mg/kg/injection, schedule: Q01DX001 (oral), vehicle: water) was 103 % of control and 108 % of control, the T/C (dose: 300.0 mg/kg/injection, schedule: Q01DX005 (oral), vehicle: water) was 184 % of control and the T/C (dose: 300.0 mg/kg/injection, schedule: Q01DX009 (oral), vehicle: water) was 167 % of control. The T/C (dose: 300.0 mg/kg/injection, schedule: Q07DX004 (oral), vehicle: water) was 103 % of control, the T/C (dose: 300.0 mg/kg/injection, schedule: Q## X006 (oral), vehicle: water) was 108 % of control and the T/C (dose: 300.0 mg/kg/injection, schedule: Q## X008 (oral), vehicle: water) was 112 % of control. For the same compound, the T/C (dose: 300.0 mg/kg/injection, schedule: Q## X024 (oral), vehicle: water) was 113 % of control, the T/C (dose: 400.0 mg/kg/injection, schedule: Q01DX011 (oral), vehicle: water) was 179 % of control and the T/C (dose: 600.0 mg/kg/injection, schedule: Q01DX001 (oral), vehicle: water) was 108 % of control and 114 % of control. The T/C (dose: 600.0 mg/kg/injection, schedule: Q01DX005 (oral), vehicle: water) was 153 % of control, the T/C (dose: 600.0 mg/kg/injection, schedule: Q01DX009 (oral), vehicle: water) was 185 % of control and the T/C (dose: 600.0 mg/kg/injection, schedule: Q07DX004 (oral), vehicle: water) was 107 % of control. For the same compound, the T/C (dose: 600.0 mg/kg/injection, schedule: Q## X003 (oral), vehicle: water) was 153 % of control, the T/C (dose: 600.0 mg/kg/injection, schedule: Q## X006 (oral), vehicle: water) was 114 % of control and the T/C (dose: 600.0 mg/kg/injection, schedule: Q## X024 (oral), vehicle: water) was 120 % of control. For the same compound, the T/C (dose: 660.0 mg/kg/injection, schedule: Q04DX003 (ip), vehicle: carboxymethylcellulose (CMC)) was 214 % of control, the T/C (dose: 800.0 mg/kg/injection, schedule: Q01DX011 (oral), vehicle: water) was 121 % of control and the T/C (dose: 1000.0 mg/kg/injection, schedule: Q01DX001 (ip), vehicle: saline) was 164 % of control. For the same compound, the T/C (dose: 1099.0 mg/kg/injection, schedule: Q01DX001 (ip), vehicle: carboxymethylcellulose (CMC)) was 160 % of control, the T/C (dose: 1099.0 mg/kg/injection, schedule: Q04DX003 (ip), vehicle: carboxymethylcellulose (CMC)) was 244 % of control and the T/C (dose: 1200.0 mg/kg/injection, schedule: Q01DX001 (oral), vehicle: water) was 115 % of control and 121 % of control. The T/C (dose: 1200.0 mg/kg/injection, schedule: Q01DX005 (oral), vehicle: water) was 153 % of control and 180 % of control, the T/C (dose: 1200.0 mg/kg/injection, schedule: Q01DX015 (oral), vehicle: carboxymethylcellulose (CMC)) was 100 % of control and the T/C (dose: 1200.0 mg/kg/injection, schedule: Q07DX004 (oral), vehicle: water) was 119 % of control. The T/C (dose: 1200.0 mg/kg/injection, schedule: Q## X003 (oral), vehicle: water) was 185 % of control, the T/C (dose: 1832.0 mg/kg/injection, schedule: Q01DX001 (ip), vehicle: carboxymethylcellulose (CMC)) was 156 % of control and the T/C (dose: 1832.0 mg/kg/injection, schedule: Q04DX003 (ip), vehicle: carboxymethylcellulose (CMC)) was 228 % of control. For the same compound, the T/C (dose: 2400.0 mg/kg/injection, schedule: Q01DX001 (oral), vehicle: water) was 109 % of control, the T/C (dose: 2400.0 mg/kg/injection, schedule: Q07DX004 (oral), vehicle: water) was 123 % of control and the T/C (dose: 2400.0 mg/kg/injection, schedule: Q## X003 (oral), vehicle: water) was 189 % of control. The T/C (dose: 2400.0 mg/kg/injection, schedule: Q## X006 (oral), vehicle: water) was 181 % of control.
